Measured values reported in PubChem BioAssay AID1671316.

Biological target: Tyrosine-protein kinase Lck (Homo sapiens) (UniProt P06239)
Assay: PubChem AID 1671316
Details: Z'-LYTE FRET kinase assay, recombinant LCK

Chain of Tyrosine-protein kinase Lck (Homo sapiens) (P06239 whole entry, looked up): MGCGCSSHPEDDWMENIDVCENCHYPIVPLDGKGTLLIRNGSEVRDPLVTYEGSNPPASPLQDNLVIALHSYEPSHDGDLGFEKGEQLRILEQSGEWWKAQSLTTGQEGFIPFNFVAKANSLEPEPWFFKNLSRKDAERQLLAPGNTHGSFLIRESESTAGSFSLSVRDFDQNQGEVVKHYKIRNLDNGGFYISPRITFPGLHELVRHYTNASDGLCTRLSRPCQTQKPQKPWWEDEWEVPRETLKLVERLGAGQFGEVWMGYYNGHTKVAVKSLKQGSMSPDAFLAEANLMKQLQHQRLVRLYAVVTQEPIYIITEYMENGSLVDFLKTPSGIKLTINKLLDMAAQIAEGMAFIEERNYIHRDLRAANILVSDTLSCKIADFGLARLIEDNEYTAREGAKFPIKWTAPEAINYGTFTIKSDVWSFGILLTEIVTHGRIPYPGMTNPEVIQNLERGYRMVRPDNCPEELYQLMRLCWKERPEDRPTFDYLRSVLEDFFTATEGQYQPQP

- IC50: 799 nM
Structure (SMILES): COc1cc2ncnc(Nc3cccc(Cl)c3)c2cc1OC
